According to US10434167B2 (priority 2014, dated 2019):

Test system: Human red blood cells
Assay: Hemolytic assay (hemolysis of red blood cells by QS-21/saponin with or without liposomes)
Assay type: cell-based
Conditions: 22° C.
Source text: Hemolysis of red blood cells was used as a measure both of the relative amount of free QS-21, and of the toxicity of QS-21 under the indicated experimental conditions. Human red blood cells were purchased from the Research Blood Components LLC (Boston, Mass., USA) under a Walter Reed Army institute of Research protocol reviewed by the independent Institutional Review Board, Division of Human Subjects. Erythrocytes were washed with PBS and were quantified by a Beckman Coulter counter model ACT10 (Indianapolis Ind., USA). In each assay of this study, hemolytic activity of QS-21 incubated with or without liposomes was determined in 220 μl volume and each step of the assay was performed at room temperature (22° C.). One hundred microliters of QS-21 dilution was incubated with 100 μl of liposomes, or PBS only, on a Daigger Rocker (Vernon Hills, Ill., USA) for 15 minutes. After mixing the liposomes, 2×10^7 erythrocytes in 20 μl of PBS were added to the mixture and incubated on a Daigger Rocker for an additional 30 minutes. Plates were centrifuged at 800×g for 6 min. Supernatant was transferred to a polystyrene 96-well plate, and absorbance was read at 541 nm. Hemolysis by QS-21 binding to liposomal Chol was expressed as % of maximum hemolysis by free QS-21.
The hemolytic activities of liposome compositions with QS-21 were characterized first by varying QS-21 concentration. […] Red blood cells were added to the mixture of liposome-QS-21, and incubated for 30 minutes. Free QS-21 served as positive control. Cells were centrifuged and the optical density of supernatant was measured at 541 nm to reflect the levels of hemolysis.

Substance: QS-21
- amount of QS-21 causing maximum hemolysis (QS-21 pre-incubated with DMPC/DMPG liposomes (5 μmol phospholipids) containing 33.7 mol % Chol): approximately 4 μg
- amount of QS-21 causing maximum hemolysis (QS-21 pre-incubated with DMPC/DMPG liposomes (5 μmol phospholipids) containing 43 mol % Chol): approximately 4 μg
- amount of QS-21 up to which the hemolytic effect was completely blocked (QS-21 pre-incubated with DMPC/DMPG liposomes (5 μmol phospholipids) having 55 mol % Chol): ≥ 200 µg
- amount of QS-21 causing maximum hemolysis (free QS-21, no liposomes): approximately 2 μg
